Experimental data: paper PMC5780498, “Discovery of novel bacterial topoisomerase I inhibitors by use of in silico docking and in vitro assays” (Scientific Reports, 2018)
Values after ≈ are worked out from the molar mass of the structure shown. “Also recorded” adds a separate entry of the source. Like-named read-outs stand apart in the source and are kept apart here.

What was measured:
[1] = biological target: T1, M. tuberculosis topoisomerase I (MtbTopI) (Mycobacterium tuberculosis, UniProt P9WG49); experiment: MtbTopI relaxation inhibition assay; type: biochemical; conditions: 12.5 nM enzyme, supercoiled pBAD/Thio plasmid, 37 °C 30 min, agarose gel
T1 construct: made in house
T1 sequence (P9WG49 whole entry): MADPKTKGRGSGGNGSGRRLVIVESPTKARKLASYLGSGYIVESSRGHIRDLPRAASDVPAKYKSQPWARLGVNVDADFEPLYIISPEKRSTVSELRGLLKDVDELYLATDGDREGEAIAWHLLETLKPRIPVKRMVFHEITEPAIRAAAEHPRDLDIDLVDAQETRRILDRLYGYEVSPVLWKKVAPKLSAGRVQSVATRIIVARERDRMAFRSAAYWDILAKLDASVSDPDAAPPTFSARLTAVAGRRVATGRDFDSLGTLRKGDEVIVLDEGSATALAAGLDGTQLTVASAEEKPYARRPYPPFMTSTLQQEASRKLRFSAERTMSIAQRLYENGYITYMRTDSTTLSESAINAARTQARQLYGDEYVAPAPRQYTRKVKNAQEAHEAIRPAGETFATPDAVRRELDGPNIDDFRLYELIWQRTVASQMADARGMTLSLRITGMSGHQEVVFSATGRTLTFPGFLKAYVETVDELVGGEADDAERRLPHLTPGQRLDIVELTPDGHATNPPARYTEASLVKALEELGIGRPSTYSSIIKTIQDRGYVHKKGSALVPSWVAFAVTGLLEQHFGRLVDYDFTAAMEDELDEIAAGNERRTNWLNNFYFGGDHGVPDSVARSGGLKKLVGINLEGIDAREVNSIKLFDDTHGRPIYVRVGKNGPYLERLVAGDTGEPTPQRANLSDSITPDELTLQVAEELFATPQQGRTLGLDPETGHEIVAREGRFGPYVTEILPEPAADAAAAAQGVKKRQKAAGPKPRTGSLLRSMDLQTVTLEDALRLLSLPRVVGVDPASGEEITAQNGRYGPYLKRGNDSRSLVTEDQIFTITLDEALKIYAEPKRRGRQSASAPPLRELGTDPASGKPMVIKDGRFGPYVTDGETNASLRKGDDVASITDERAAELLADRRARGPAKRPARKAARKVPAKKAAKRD

E. coli DNA gyrase = biological target: T2, E. coli DNA gyrase (Escherichia coli, UniProt P0AES4+P0AES6); experiment: DNA gyrase supercoiling inhibition assay; type: biochemical; conditions: for IC50: 2 U enzyme, relaxed plasmid, 37 °C 30 min
T2 construct: purchased New England BioLabs
T2 sequence (P0AES4 whole entry, one chain of several): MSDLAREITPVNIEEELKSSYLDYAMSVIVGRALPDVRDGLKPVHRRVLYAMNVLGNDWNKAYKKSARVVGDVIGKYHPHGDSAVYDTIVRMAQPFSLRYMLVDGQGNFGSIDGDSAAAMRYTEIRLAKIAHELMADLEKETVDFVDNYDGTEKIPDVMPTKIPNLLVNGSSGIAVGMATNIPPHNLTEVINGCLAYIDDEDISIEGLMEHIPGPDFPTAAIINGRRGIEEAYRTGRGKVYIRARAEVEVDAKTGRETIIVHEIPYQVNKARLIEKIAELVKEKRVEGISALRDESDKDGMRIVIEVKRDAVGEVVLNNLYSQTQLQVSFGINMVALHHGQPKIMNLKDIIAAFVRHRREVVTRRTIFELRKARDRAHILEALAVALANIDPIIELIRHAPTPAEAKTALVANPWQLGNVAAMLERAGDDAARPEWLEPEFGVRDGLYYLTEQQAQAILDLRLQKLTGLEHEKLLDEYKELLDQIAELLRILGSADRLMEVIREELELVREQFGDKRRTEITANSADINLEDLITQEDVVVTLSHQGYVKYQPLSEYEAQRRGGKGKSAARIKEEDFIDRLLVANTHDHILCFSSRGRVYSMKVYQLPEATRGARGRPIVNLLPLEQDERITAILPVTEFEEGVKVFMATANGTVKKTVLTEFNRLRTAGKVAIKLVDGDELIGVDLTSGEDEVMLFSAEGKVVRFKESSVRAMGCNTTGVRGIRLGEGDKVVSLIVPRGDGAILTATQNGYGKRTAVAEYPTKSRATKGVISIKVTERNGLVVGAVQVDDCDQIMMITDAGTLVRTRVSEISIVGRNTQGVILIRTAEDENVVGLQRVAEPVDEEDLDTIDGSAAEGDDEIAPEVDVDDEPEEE
Experimental: E. coli DNA gyrase was obtained from New England BioLabs. Two units of the enzyme were added to a reaction buffer provided by the manufacturer (35 mM Tris-HCl, pH 8.0, 4 mM MgCl2, 24 mM KCl, 2 mM DTT, 1.75 mM ATP, 5 mM spermidine, 0.1 mg/mL BSA, and 6.5% glycerol). 0.5 µL of the compounds dissolved in DMSO or the solvent alone were added to the enzyme mixture. 300 ng of relaxed covalently closed plasmid DNA was then added for a final volume of 20 µL. The reactions were incubated for 30 minutes at 37 °C before termination by the addition of 4 µL of the SDS stop buffer. The samples were then loaded into a 1% agarose gel and run at 25 V overnight. The experiments were replicated twice.

[2] = biological target: T3, human topoisomerase I (hTOPI) (Homo sapiens, UniProt P11387); experiment: Human topoisomerase I relaxation inhibition assay; type: biochemical; conditions: for IC50: 0.5 U enzyme, supercoiled plasmid, 37 °C 30 min; for Selectivity Score: hTOPI IC50/MtbTopI IC50
T3 construct: purchased TopoGen
T3 sequence (P11387 1-765): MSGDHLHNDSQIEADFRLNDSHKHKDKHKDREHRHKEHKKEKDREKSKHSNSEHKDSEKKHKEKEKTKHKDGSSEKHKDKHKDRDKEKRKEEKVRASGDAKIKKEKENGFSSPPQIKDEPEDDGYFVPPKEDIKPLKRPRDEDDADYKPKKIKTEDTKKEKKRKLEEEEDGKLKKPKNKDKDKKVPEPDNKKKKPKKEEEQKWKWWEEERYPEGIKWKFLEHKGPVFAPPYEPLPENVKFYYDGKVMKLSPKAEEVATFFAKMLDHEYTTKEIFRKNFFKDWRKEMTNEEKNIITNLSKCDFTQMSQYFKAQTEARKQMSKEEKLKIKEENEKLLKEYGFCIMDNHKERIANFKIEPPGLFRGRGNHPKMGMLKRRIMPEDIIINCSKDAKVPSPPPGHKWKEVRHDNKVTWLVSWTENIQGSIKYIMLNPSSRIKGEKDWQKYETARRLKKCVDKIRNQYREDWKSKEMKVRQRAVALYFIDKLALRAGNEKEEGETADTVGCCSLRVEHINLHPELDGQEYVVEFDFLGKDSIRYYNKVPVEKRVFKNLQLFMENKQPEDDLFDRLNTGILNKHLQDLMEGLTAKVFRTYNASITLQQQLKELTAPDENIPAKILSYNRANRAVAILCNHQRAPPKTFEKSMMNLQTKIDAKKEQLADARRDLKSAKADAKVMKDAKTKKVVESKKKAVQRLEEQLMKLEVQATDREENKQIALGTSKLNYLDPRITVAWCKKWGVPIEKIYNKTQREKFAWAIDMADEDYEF
Experimental: Human topoisomerase I assays were carried out in a buffer containing 10 mM Tris-HCl, pH 8.0, 150 mM NaCl, 0.1% BSA, 0.1 mM spermidine, and 5% glycerol. The enzyme (from TopoGen) was diluted in the above buffer and aliquoted into 10 µL samples such that 0.5U was present in each. 0.5 µL of compound at various concentrations was added before the addition of 150 ng of purified pBAD/Thio purified plasmid DNA for a final volume of 20 µL. The samples were incubated for 30 minutes at 37 °C before stopping by the addition of 4 µL of buffer containing 5% SDS, 0.25% bromophenol blue, and 25% glycerol. The samples were analyzed by gel electrophoresis as previously described[23],[38],[39]. The experiments were replicated twice.

[3] = tested on: M. smegmatis transformed with cloning vector (MnoI strain); experiment: microbe, parasite or virus in culture; type: cell-based, Mycobacterium smegmatis; conditions: Mycolicibacterium smegmatis
E. coli topoisomerase I = E. coli topoisomerase I (Escherichia coli, UniProt P06612); experiment: E. coli topoisomerase I relaxation inhibition assay; type: biochemical; conditions: for Inhibition of E. coli topoisomerase I relaxation activity (in words): Supplementary Fig. S2
Sequence of E. coli topoisomerase I (P06612 whole entry): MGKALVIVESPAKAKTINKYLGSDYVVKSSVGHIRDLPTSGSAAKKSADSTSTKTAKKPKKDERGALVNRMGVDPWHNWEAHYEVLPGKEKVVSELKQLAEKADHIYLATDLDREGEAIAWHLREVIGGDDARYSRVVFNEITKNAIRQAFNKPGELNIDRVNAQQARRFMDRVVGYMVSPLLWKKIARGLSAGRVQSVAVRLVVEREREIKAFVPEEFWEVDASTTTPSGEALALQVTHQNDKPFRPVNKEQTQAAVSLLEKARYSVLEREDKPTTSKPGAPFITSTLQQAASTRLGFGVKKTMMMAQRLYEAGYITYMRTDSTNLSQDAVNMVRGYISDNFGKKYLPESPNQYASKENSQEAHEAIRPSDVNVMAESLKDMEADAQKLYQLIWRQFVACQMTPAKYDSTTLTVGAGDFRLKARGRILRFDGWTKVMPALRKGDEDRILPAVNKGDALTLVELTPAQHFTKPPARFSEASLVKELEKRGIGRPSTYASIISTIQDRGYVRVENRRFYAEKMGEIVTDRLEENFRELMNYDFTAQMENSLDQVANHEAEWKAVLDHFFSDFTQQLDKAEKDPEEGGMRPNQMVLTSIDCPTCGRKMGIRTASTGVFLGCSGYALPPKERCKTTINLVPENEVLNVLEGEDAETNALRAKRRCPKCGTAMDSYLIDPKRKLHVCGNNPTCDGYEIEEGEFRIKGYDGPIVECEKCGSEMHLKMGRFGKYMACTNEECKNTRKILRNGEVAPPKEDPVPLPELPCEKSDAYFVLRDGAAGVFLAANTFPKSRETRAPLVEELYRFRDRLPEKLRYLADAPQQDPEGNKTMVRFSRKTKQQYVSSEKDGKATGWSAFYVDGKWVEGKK

human topoisomerase I = biological target: T4, human topoisomerase I (Homo sapiens, UniProt P11387); experiment: Gel electrophoresis with ethidium bromide of human topoisomerase I reaction products (nicked DNA); type: biochemical; conditions: gel electrophoresis in the presence of ethidium bromide
T4 construct: purchased TopoGen
T4 sequence (P11387 1-765): T3 sequence (P11387 1-765)

[4] = 48 h, read-out: MnoI Growth Inhibition (MIC)
[5] = read-out: MnoI Growth Inhibition with TZ (MIC)

SMILES | IC50 [1] [µM] | IC50 (E. coli DNA gyrase) [µM] | IC50 [2] [µM] | MIC [3, 4] [µM] | MIC [3, 5] [µM] | Inhibition of E. coli topoisomerase I relaxation activity (in words) (E. coli topoisomerase I) | Selectivity Score [2] | Formation of nicked DNA by human topoisomerase I (human topoisomerase I) | Inhibition of E. coli DNA gyrase supercoiling activity (in words) (E. coli DNA gyrase; up to 500 µM) | IC50 (E. coli topoisomerase I; assay conditions as for MtbTopI) [µM]
O=C(CN1C(=O)C2C3CCC(C3)C2C1=O)N1CCC2(CC1)Nc1ccccc1-n1cccc12 (centres unmarked) [Compound 6] | 500 | – | – | – | – | – | – | – | – | –
Cc1ccc2c(C)c(C(=O)N3CCC4(CC(=O)c5ccccc5O4)C3)oc2c1 (centres unmarked) [Compound 12] | 62.5 | > 500 | > 500 | > 500 | 500 (≈ 188 µg/mL) | – | – | – | – | –
Cc1cc2oc(C(=O)N3CCC(c4nc5ccccc5[nH]4)CC3)c(C)c2cc1C [Compound 8] | 62.5 | > 500 | > 500 | > 500 | 23.4 (≈ 9.07 µg/mL) | inhibited | – | – | – | –
Cc1ccc2[nH]c(C3CCN(C(=O)c4oc5ccc(C)cc5c4C)CC3)nc2c1 [Compound 9] | 62.5 | > 500 | > 500 | 125 (≈ 48.4 µg/mL) | 23.4 (≈ 9.07 µg/mL) | inhibited | – | – | – | –
COc1ccc2c(c1)NC1(CCN(C(=O)Cc3c[nH]c4ccccc34)CC1)NS2(=O)=O [Compound 3] | 62.5 | – | > 250 | 250 (≈ 110 µg/mL) | 31.3 (≈ 13.8 µg/mL) | – | >4 | – | – | –
Cc1c(C(=O)N2CCC(c3nnc(-c4nccc5ccccc45)o3)CC2)oc2ccccc12 [Compound 2] | 62.5 | – | > 250 | 188 (≈ 82.2 µg/mL) | 31.3 (≈ 13.7 µg/mL) | – | >4 | – | – | –
O=C(c1ccc2c(c1)OCO2)N1CCC(Cn2nc(-c3ccc(F)cc3)ccc2=O)CC1 [Compound 5] | 250 | – | – | – | – | – | – | – | – | –
Cc1c(C(=O)N2CCC3(CC2)CC(O)(c2ccc(F)cc2)CO3)oc2ccccc12 (centres unmarked) [Compound 4] | 125 | – | > 250 | – | – | – | >2 | – | – | –
CC[C@@]1(O)C(=O)OCc2c1cc1n(c2=O)Cc2cc3ccccc3nc2-1 [camptothecin] | – | – | – | – | – | – | – | increased nicking of DNA by human topoisomerase I significantly | – | –
Cc1ccc(CN2C[C@]34C=C[C@H](O3)C(C(=O)N3CCn5cccc5C3)C4C2=O)cc1C (some centres unmarked) [Compound 7] | 2 | – | > 500 | > 500 | 500 (≈ 209 µg/mL) | inhibited | – | – | no inhibition; also recorded: does not inhibit | 15.6 to 31.3
Cc1c(C(=O)N2CCCCC2CCc2ccc(O)cc2)oc2c(F)cccc12 (centres unmarked) [Compound 11] | 62.5 | > 500 | 250 | 500 (≈ 191 µg/mL) | 46.9 (≈ 17.9 µg/mL) | – | – | – | – | –
Cc1ccc2oc(C(=O)N3CCC(O)(c4cccc(C(F)(F)F)c4)CC3)c(C)c2c1 [Compound 10] | 62.5 | > 500 | > 500 | 125 (≈ 52.2 µg/mL) | 23.4 (≈ 9.77 µg/mL) | – | – | – | – | –
